# From ChEMBL document CHEMBL1124625, “Flavones. 2. Synthesis and structure-activity relationship of flavodilol and its analogues, a novel class of antihypertensive agents with catecholamine depleting properties” (J Med Chem, 1989)
# Experiments:
# [1] = tested on: Rattus norvegicus; assay: Systolic blood pressure (SBP) in anesthetized spontaneously hypertensive rats(SHR) at 7.5 hours after administration of 65 mg/kg dose perorally; NS is not statistically significant.
# [2] = tested on: Rattus norvegicus; assay: Systolic blood pressure (SBP) in anesthetized spontaneously hypertensive rats(SHR) before administration of 65 mg/kg dose perorally; assay type: functional; conditions: route oral
# [3] = tested on: Rattus norvegicus; assay: % decrease in systolic blood pressure (SBP) in anesthetized spontaneously hypertensive rats(SHR) after administration of 75 mg/kg dose perorally; conditions: route oral
# [4] = tested on: Rattus norvegicus; assay: Systolic blood pressure (SBP) in anesthetized spontaneously hypertensive rats (SHR) before administration of 75 mg/kg dose perorally.; assay type: functional; set-up: unit: mmHg; conditions: route oral
# [5] = tested on: Rattus norvegicus; assay: % decrease in heart 5-HT in anesthetized spontaneously hypertensive rats(SHR) at 5 hours after administration of 150 mg/kg dose perorally; assay type: functional; conditions: route oral
# [6] = tested on: Rattus norvegicus; assay: % decrease in heart 5-HT in anesthetized spontaneously hypertensive rats(SHR) at 5 hours after administration of 75 mg/kg dose perorally; assay type: functional; conditions: route oral
# [7] = tested on: Rattus norvegicus; assay: % decrease in heart norepinephrine in anesthetized spontaneously hypertensive rats(SHR) at 5 hours after administration of 75 mg/kg dose perorally; assay type: functional; conditions: route oral
# [8] = tested on: Rattus norvegicus; assay: Systolic blood pressure (SBP) in anesthetized spontaneously hypertensive rats(SHR) at 7.5 hours after administration of 75 mg/kg dose perorally; NS is not statistically significant.
# [9] = tested on: Rattus norvegicus; assay: % decrease in heart norepinephrine in anesthetized spontaneously hypertensive rats(SHR) at 5 hours after administration of 150 mg/kg dose perorally; assay type: functional; conditions: route oral
# [10] = tested on: Rattus norvegicus; assay: % decrease in hypothalamus DA in anesthetized spontaneously hypertensive rats(SHR) at 5 hours after administration of 75 mg/kg dose perorally; *value significantly different was control.; conditions: route oral
# [11] = tested on: Rattus norvegicus; assay: % decrease in hypothalamus norepinephrine in anesthetized spontaneously hypertensive rats(SHR) at 5 hours after administration of 150 mg/kg dose perorally; assay type: functional; conditions: route oral
# [12] = tested on: Rattus norvegicus; assay: % decrease in systolic blood pressure (SBP) in anesthetized spontaneously hypertensive rats(SHR) after administration of 150 mg/kg dose perorally; conditions: route oral
# [13] = tested on: Rattus norvegicus; assay: % decrease in hypothalamus DA in anesthetized spontaneously hypertensive rats(SHR) at 5 hours after administration of 150 mg/kg dose perorally; conditions: route oral
# [14] = tested on: Rattus norvegicus; assay: % decrease in hypothalamus norepinephrine in anesthetized spontaneously hypertensive rats(SHR) at 5 hours after administration of 75 mg/kg dose perorally; assay type: functional; conditions: route oral
SMILES,Decrease in Systolic blood pressure [1],Systolic blood pressure [2],% decrease SBP [3],Systolic blood pressure [4],Decrease [5],Decrease [6],Decrease [7],Decrease in Systolic blood pressure [8],Decrease [9],% decrease hypothalamus DA [10],Decrease [11],% decrease SBP [12],% decrease hypothalamus DA [13],Decrease [14]
CC(C)NCC(O)COc1ccc2c(=O)cc(-c3ccc(N)cc3)oc2c1 (centres undefined),Not significant,206,,,,,,,,,,,,
CN(C)CC(O)COc1ccc2c(=O)cc(-c3ccccc3)oc2c1 (centres undefined),,,0%,207,0%,0%,18%,Not significant,7%,29%,37%,5%,47%,20%
